Data on 38 molecules can be found in paper PMC7251097, “Aspartate/asparagine-β-hydroxylase: a high-throughput mass spectrometric assay for discovery of small molecule inhibitors” (Scientific Reports, 2020).

The assay deals with T1, His6-AspH315–758 (human aspartate/asparagine-β-hydroxylase, AspH) (Homo sapiens, UniProt Q12797).
T1 construct: N-Terminally His6-tagged human AspH315–758 (His6-AspH315–758) was produced in E. coli BL21 (DE3) cells; made in house; host or cells: E. coli BL21 (DE3), pET-28a(+) vector
T1 sequence (Q12797 315-758): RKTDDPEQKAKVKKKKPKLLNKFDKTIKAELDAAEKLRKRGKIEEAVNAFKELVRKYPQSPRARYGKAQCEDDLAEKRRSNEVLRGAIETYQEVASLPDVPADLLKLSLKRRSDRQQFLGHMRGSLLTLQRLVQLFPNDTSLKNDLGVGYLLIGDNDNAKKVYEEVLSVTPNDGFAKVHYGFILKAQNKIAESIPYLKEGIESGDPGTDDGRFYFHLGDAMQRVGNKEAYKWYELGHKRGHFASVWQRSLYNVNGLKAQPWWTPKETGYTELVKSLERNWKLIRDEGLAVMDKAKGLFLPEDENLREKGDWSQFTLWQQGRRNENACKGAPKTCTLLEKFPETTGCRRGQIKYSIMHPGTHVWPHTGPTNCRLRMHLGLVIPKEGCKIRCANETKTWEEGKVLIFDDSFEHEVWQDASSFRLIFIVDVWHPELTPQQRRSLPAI
Kind of assay: SPE-MS AspH inhibition assay (LOPAC screen at fixed 20 μM and IC50 dose-response), hydroxylation of cyclic peptide hFX-CP101–119. The following applies: for Plate 5 (% conversion): mean conversion DMSO 32.88; for % conversion / % inhibition: LOPAC Plate 4, compound at 20 uM; for % conversion / Plate 1 (% conversion): substrate conversion; for Plate 1 (% inhibition) / Plate 1 (% conversion): LOPAC compound at fixed 20 uM; for Plate 1 (% inhibition): plate 1, normalised to DMSO and 2,4-PDCA controls. The assay is classed as biochemical.

The mark [1] stands for this setting: LOPAC compound at 20uM, plate 2, conversion of substrate peptide.
Where [2] appears, read: LOPAC compound at 20uM, plate 2, normalised to DMSO and 2,4-PDCA controls, read-out: Plate 2 (% inhibition).
Where [3] appears, read: plate 5 (Pfitzer), test compounds at fixed 20 μM.
The mark [4] stands for this setting: read-out: Plate 2 (% inhibition).
Setting [5] is: LOPAC compound at 20uM, conversion of substrate peptide.
Where [6] appears, read: LOPAC compound at 20uM, plate 2, normalised to DMSO and 2,4-PDCA controls.

Where a name gives a salt, the structure may show the parent alone. Read-outs that look alike come from different tables or passages of the source.

Broadly, the inhibition is the drop in the measured response relative to a control, in per cent. On to `CCC1(C2=NCCN2)Cc2ccccc2O1` (stereo not drawn) [Efaroxan hydrochloride], for which, under setting [1], the “Plate 2 (% conversion)” value was found to be 34.90%. For the same molecule, under setting [2], the inhibition at 20 µM worked out at 3.14%. Consider `CN1CCC[C@@H]1Cc1c[nH]c2ccc(CCS(=O)(=O)c3ccccc3)cc12` [Eletriptan], for which, under setting [3], the “Plate 5 (% inhibition)” value is 0.46% and the “Plate 5 (% conversion)” value was 36.16%. On to `OC(CN1CCC(Cc2ccc(F)cc2)CC1)c1ccc(Cl)cc1` (stereo not drawn) [Eliprodil], for which, under setting [1], the “Plate 2 (% conversion)” value came out at 39.73%. For the same molecule, under setting [2], the inhibition at 20 µM is -11.3%. Regarding `Cc1c2ccncc2c(C)c2c1[nH]c1ccccc12` [Ellipticine], the “Plate 2 (% conversion)” value is listed as 45.95%. Further, the inhibition at 20 µM under setting [2] is -29.9%. Regarding `CC[C@H]1CN2CCc3cc(OC)c(OC)cc3[C@@H]2C[C@@H]1C[C@H]1NCCc2cc(OC)c(OC)cc21` [Emetine dihydrochloride hydrate], the “Plate 2 (% conversion)” value came to 37.46%. The inhibition at 20 µM under setting [4] was -4.49%.

With `Cc1cc(O)c2c(c1)C(=O)c1cc(O)cc(O)c1C2=O` [Emodin], the “Plate 2 (% conversion)” value is 37.82%. Besides, the inhibition at 20 µM under setting [2] was -5.58%. As to `C[C@H](N[C@@H](CCc1ccccc1)C(=O)O)C(=O)N1CCC[C@H]1C(=O)O.O.O` [Enalaprilat dihydrate], the “% conversion” value turned out to be 37.37%.

For `CC(C)C[C@H](NC(=O)[C@H](O)[C@H](N)Cc1ccccc1)C(=O)O` [Epibestatin hydrochloride], the “Plate 2 (% conversion)” value under setting [1] was determined as 35.33%. For the same molecule, under setting [2], the inhibition at 20 µM stood at 1.86%. With `CCCCc1ncc(/C=C(\Cc2cccs2)C(=O)O)n1Cc1ccc(C(=O)O)cc1` [Eprosartan mesylate], the “Plate 3 (% conversion)” value under setting [5] amounted to 33.79%. Regarding `COc1ccc2[n-]c([S@@+]([O-])Cc3ncc(C)c(OC)c3C)nc2c1.COc1ccc2[n-]c([S@@+]([O-])Cc3ncc(C)c(OC)c3C)nc2c1.O.O.[Mg+2]` [Esomeprazole magnesium dihydrate], the “Plate 2 (% conversion)” value under setting [1] came out at 41.52%. For the same molecule, the “Plate 2 (% inhibition)” value under setting [6] is -16.62%. As for `C[C@]12CC[C@@H]3c4ccc(O)cc4CC[C@H]3[C@@H]1CCC2=O` [Estrone], the “Plate 2 (% conversion)” value is 37.75%. The inhibition at 20 µM under setting [2] was -5.35%. In the case of `CCOC(=O)c1cnc2c(cnn2CC)c1NN=C(C)C` [Etazolate hydrochloride], the “Plate 2 (% conversion)” value under setting [1] was 58.51%. Also, under setting [2], the inhibition at 20 µM is -67.4%. On the same counts, the results for `CCC1(C)CC(=O)NC1=O` (stereo not drawn) [Ethosuximide] are 37.85% and -5.65%.

For `CCc1cccc2c3c([nH]c12)C(CC)(CC(=O)O)OCC3` (stereo not drawn) [Etodolac], under setting [1], the “Plate 2 (% conversion)” value is 36.91%. Moreover, the inhibition at 20 µM under setting [2] was -2.84%. As for `C=C1C[C@@H]2[C@H](CC[C@]3(C)C(=O)CC[C@@H]23)[C@@]2(C)C=CC(=O)C=C12` [Exemestane], the “Plate 5 (% inhibition)” value was 2.56%. In addition, under setting [3], the “Plate 5 (% conversion)” value is 35.45%. The term % inhibition denotes the relative decrease from the control value, in per cent. As to `Clc1ccc(N2CCN(Cc3cc4ccccn4n3)CC2)cc1` [FAUC 213], the “% inhibition” value was -8.79% and the “% conversion” value is listed as 39.47%. As for `COC(=O)c1c(C)[nH]c(C)c1C(=O)c1ccccc1Cc1ccccc1` [FPL 64176], the “Plate 2 (% conversion)” value under setting [1] stood at 38.85%. The “Plate 2 (% inhibition)” value under setting [6] was -8.64%. In the case of `NC(=O)OCC(COC(N)=O)c1ccccc1` [Felbamate], the “Plate 2 (% conversion)” value under setting [1] is 34.68%. For the same molecule, under setting [2], the inhibition at 20 µM was found to be 3.82%. Turning to `CN1CC(=O)NC1=NC(=O)Nc1cccc(Cl)c1` [Fenobam], the “Plate 3 (% conversion)” value under setting [5] amounted to 36.37%. Regarding `Oc1ccc(C2CNCCc3c2cc(O)c(O)c3Cl)cc1` (stereo not drawn) [Fenoldopam bromide, reference compound], the inhibition at 20 µM reads like this: (AspH activity, fixed compound concentration 20 μM, initial LOPAC screen, 0.5%v/v DMSO, read-out: Inhibition at 20 µM [%]) 98.3%; under setting [2], 98.3%. Under setting [1], the “Plate 2 (% conversion)” value turned out to be 3.05%. In the case of `CC(Cc1ccc(O)cc1)NCC(O)c1cc(O)cc(O)c1` (stereo not drawn) [Fenoterol hydrobromide], the “Plate 2 (% conversion)” value is given as 38.93%. Moreover, the inhibition at 20 µM under setting [4] is -8.89%. Turning to `COc1cccc2c1[C@@H]1CN(CCCCn3c(=O)[nH]c4c(sc5ncc(-c6ccccc6)nc54)c3=O)C[C@@H]1CO2` [Fiduxosin hydrochloride], under setting [1], the “Plate 2 (% conversion)” value stood at 64.73%. Besides, the inhibition at 20 µM under setting [2] was -85.9%. The matching figures for `Fc1ccc(C(c2ccc(F)cc2)N2CCN(C/C=C/c3ccccc3)CC2)cc1` [Flunarizine dihydrochloride]: 46.32% and -31%. On the same counts, the results for `CNCCC(Oc1ccc(C(F)(F)F)cc1)c1ccccc1` (stereo not drawn) [Fluoxetine hydrochloride] are 43.85% and -23.6%.

In the case of `OCCN1CCN(CCCN2c3ccccc3Sc3ccc(C(F)(F)F)cc32)CC1` [Fluphenazine dihydrochloride], the “Plate 2 (% conversion)” value worked out at 63.32%. Under setting [2], the inhibition at 20 µM was -81.7%. `CCOC(=O)Nc1ccc(NCc2ccc(F)cc2)nc1N` [Flupirtine maleate]: the “Plate 2 (% conversion)” value under setting [1] was 33.85%. Under setting [2], the inhibition at 20 µM was determined as 6.29%. On to `O=C1NCN(c2ccccc2)C12CCN(CCCC(c1ccc(F)cc1)c1ccc(F)cc1)CC2` [Fluspirilene], for which, under setting [1], the “Plate 2 (% conversion)” value amounted to 58.99%. In addition, the inhibition at 20 µM under setting [2] was -68.8%.

On to `CC(C)C(=O)Nc1ccc([N+](=O)[O-])c(C(F)(F)F)c1` [Flutamide], for which the “Plate 2 (% conversion)” value under setting [1] is given as 40.61%. Moreover, the inhibition at 20 µM under setting [2] is -13.9%.

For the molecule `O=CN(O)CCCP(=O)([O-])O.[Na+]` [Fosmidomycin sodium salt hydrate], the “Plate 3 (% conversion)” value under setting [5] came to 34.84%. Consider `C[C@]12CC[C@@H]3c4ccc(O)cc4C[C@@H](CCCCCCCCC[S+]([O-])CCCC(F)(F)C(F)(F)F)[C@H]3[C@@H]1CC[C@@H]2O` (stereo partly drawn) [Fulvestrant], for which the “Plate 1 (% inhibition)” value amounted to 12.89% and the “Plate 1 (% conversion)” value is 31.54%. On to `Cc1nc2c([nH]1)c(=O)n(C)c(=O)n2Cc1ccco1` [Furafylline], for which the “Plate 2 (% conversion)” value under setting [1] is 36.33%. The inhibition at 20 µM under setting [2] is -1.12%.

`O=C([O-])c1cc2cc(Cc3cccnc3)ccc2o1.[Na+]` [Furegrelate sodium]: the “Plate 2 (% conversion)” value under setting [1] turned out to be 36.88%. The “Plate 2 (% inhibition)” value under setting [6] was -2.76%. With `NS(=O)(=O)c1cc(C(=O)O)c(NCc2ccco2)cc1Cl` [Furosemide], the inhibition at 20 µM under setting [2] came to 2.67%. Consider `CCCCc1ccc(C(=O)O)nc1` [Fusaric acid], for which the “Plate 2 (% conversion)” value is recorded as 28.15%. The inhibition at 20 µM under setting [4] was 23.3%. With `CC(=O)O[C@H]1C[C@@]2(C)[C@@H](C[C@@H](O)[C@H]3[C@@]4(C)CC[C@@H](O)[C@@H](C)[C@@H]4CC[C@@]32C)/C1=C(\CCC=C(C)C)C(=O)[O-].[Na+]` [Fusidic acid sodium], under setting [1], the “Plate 2 (% conversion)” value was found to be 40.54%. Under setting [6], the “Plate 2 (% inhibition)” value was -13.68%. Consider `NCCCC(=O)O` [GABA], for which the “Plate 1 (% inhibition)” value is reported as -1.98% and the “Plate 1 (% conversion)” value amounted to 36.54%. Take `CN(C)c1ccccc1CN1CCCN(Cc2ccccc2N(C)C)C1c1ccncc1` [GANT61]: the “% inhibition” value is on record as -13.34% and the “% conversion” value is 41.02%. For the molecule `Cl.Cl.Fc1ccc(C(OCCN2CCN(CCCc3ccccc3)CC2)c2ccc(F)cc2)cc1` [GBR-12909 dihydrochloride], under setting [1], the “Plate 2 (% conversion)” value came out at 51.05%. Also, the “Plate 2 (% inhibition)” value under setting [6] was -45.09%.
